Reference: article PMC11606603, “The membrane domains of mammalian adenylyl cyclases are lipid receptors” (eLife, 2024)

Biological target: T1, mAC7 (Homo sapiens, UniProt P51828)
T1 construct: Human mAC genes were from GenScript and fitted with a C-terminal FLAG-tag; FLAG (C); made in house; host or cells: HEK293, permanently transfected; membrane preparation
Test: AC assay, Gsα-stimulated mAC7 in membranes from transfected HEK293 cells
Assay type: biochemical
Outline: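 EC50 and IC50 values come from cAMP production, read with a Cisbio cAMP kit and converted via a standard curve. Assay mix held 1 mM ATP, 2 mM MgCl2, 3 mM creatine phosphate and 60 μg/ml creatine kinase in 50 mM MOPS pH 7.5, using transfected HEK293 membranes.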

T1 sequence (P51828 whole entry): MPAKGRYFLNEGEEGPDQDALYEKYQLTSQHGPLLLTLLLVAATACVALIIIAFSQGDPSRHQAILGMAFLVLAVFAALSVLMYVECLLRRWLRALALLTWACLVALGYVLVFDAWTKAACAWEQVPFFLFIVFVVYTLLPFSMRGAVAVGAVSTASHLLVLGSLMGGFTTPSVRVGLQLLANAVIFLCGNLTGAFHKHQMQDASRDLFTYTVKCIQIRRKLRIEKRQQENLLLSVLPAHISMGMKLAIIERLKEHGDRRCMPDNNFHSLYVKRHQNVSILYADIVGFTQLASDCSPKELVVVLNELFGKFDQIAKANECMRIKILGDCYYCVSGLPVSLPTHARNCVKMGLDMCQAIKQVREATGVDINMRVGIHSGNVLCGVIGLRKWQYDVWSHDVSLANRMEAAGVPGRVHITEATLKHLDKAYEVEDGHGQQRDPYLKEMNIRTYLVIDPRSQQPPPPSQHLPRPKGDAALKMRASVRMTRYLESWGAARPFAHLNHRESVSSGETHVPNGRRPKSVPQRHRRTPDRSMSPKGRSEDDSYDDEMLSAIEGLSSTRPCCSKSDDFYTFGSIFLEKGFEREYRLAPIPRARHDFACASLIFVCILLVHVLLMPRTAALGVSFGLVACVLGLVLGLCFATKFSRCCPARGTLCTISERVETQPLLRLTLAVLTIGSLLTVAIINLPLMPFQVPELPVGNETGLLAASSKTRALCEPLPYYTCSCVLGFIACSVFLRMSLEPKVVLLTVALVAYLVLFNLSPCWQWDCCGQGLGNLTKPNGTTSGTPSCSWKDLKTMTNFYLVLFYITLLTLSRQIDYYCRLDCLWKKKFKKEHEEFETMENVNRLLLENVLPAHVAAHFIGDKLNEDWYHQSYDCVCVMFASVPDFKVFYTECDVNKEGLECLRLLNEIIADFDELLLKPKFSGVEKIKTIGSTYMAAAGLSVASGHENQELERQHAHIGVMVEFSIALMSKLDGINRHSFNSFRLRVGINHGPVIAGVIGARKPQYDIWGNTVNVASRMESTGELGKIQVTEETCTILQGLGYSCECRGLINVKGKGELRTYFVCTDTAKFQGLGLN
T1 sequence (P63092 2-394 Q227L partner): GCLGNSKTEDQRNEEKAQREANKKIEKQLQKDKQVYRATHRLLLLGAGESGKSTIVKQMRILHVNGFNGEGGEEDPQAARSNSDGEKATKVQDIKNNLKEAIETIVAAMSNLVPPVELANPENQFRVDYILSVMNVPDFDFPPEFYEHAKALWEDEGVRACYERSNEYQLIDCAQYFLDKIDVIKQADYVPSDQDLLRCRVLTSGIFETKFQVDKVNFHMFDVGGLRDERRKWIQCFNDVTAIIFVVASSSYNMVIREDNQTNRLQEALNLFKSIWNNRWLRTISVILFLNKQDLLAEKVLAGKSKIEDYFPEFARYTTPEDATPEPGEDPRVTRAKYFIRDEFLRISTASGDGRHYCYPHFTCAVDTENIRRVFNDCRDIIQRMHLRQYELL

CCCCCCCC/C=C\CCCCCCCC(=O)O [Oleic acid, Oleic ((9Z)-octadecenoic) acid]
Effect of lipid on 300 nM Gsα-stimulated mAC7 (20 µM, in words): significantly enhanced | mAC7 activity [%] (100% = 300nM Gsα stimulation) (Figure 5 B, oleic acid 0.3 µM): 100% | EC50 (enhancement of 300 nM Gsα-stimulated activity): 6.7 µM
